In ChEMBL document CHEMBL2029324, “A small molecule regulates hairpin structures in d(CGG) trinucleotide repeats” (Bioorg Med Chem Lett, 2012) one finds Activity data, which are given here for 1 molecule.

Common to all, as to assay type: nucleic-acid assay
Experiment [1] concerns Nucleic Acid. As to the kind of experiment: Binding affinity to d(CGG)10 DNA assessed as hairpin loop formation at 1 to 30 uM by PAGE analysis.
Experiment [2] has as its system Nucleic Acid. The experiment can be described thus: Binding affinity to d(CCG)10 DNA assessed as hairpin loop formation at 30 uM by PAGE analysis.
In experiment [3] the test system is Nucleic Acid. As to the kind of experiment: Binding affinity to d(CGG)10 DNA assessed as increase in positive induced CD at 5 to 20 uM by CD-UV analysis.
For experiment [4], the system named is Nucleic Acid. As to the kind of experiment: Binding affinity to d(CGG)10 DNA assessed as increase in strong positive peak by CD-UV analysis.
In experiment [5] the test system is Nucleic Acid. The experiment can be described thus: Binding affinity to d(CGG)10 DNA assessed as decrease in signal intensity by CD-UV analysis.
The test system of experiment [6] is Nucleic Acid. As to the kind of experiment: Binding affinity to d(CGG)10 DNA assessed as thermal denaturation at 100 degC and 20 uM.
Experiment [7] deals with Nucleic Acid. The experiment can be described thus: Binding affinity to d(CCG)10 DNA assessed as increase in melting temperature at 5 to 20 uM.
For experiment [8], the system named is Nucleic Acid. The experiment can be described thus: Binding affinity to d(CGG)10 DNA assessed as inhibition of Taq polymerase-mediated DNA replication.
Experiment [9] relates to Nucleic Acid. As to the kind of experiment: Binding affinity to d(CCG)10 DNA assessed as inhibition of Taq polymerase-mediated DNA replication at 20 uM.
For experiment [10], the system named is Nucleic Acid. As to the kind of experiment: Binding affinity to d(CGG)10 DNA assessed as inhibition of Taq polymerase at first and fifth part of the (CGG)10 repeat region from 3'-end of the template at 5 uM.
For experiment [11], the system named is Nucleic Acid. The experiment can be described thus: Binding affinity to d(CGG)10 DNA assessed as inhibition of Taq polymerase at first (CGG)10 repeat region from 3'-end of the template at increasing concentration.
For experiment [12], the system named is Nucleic Acid. As to the kind of experiment: Binding affinity to d(CGG)10 DNA assessed as formation of compound-DNA hairpin loop of the template at low compound concentration.
Experiment [13] has as its system Nucleic Acid. As to the kind of experiment: Binding affinity to d(CGG)10 DNA assessed as formation of stable compound-DNA hairpin loop of the template at increasing compound concentration.

Calls of active or inactive are those of the source. No cut-off for these calls is given here.

With `Cc1ccc2ccc(NC(=O)OCCCNCCCOC(=O)Nc3ccc4ccc(C)nc4n3)nc2n1`, the result with Nucleic Acid [1], in the experiment on Nucleic Acid [3], in the experiment on Nucleic Acid [10], in the experiment with Nucleic Acid [11], in the experiment with Nucleic Acid [12] and in the experiment on Nucleic Acid [13] was Active. Besides, the result in the experiment on Nucleic Acid [2], in the experiment with Nucleic Acid [6], with Nucleic Acid [7] and in the experiment on Nucleic Acid [9] was inactive. Besides, the Activity entry in the experiment with Nucleic Acid [4], in the experiment on Nucleic Acid [5] and in the experiment with Nucleic Acid [8] was “Dose-dependent effect” in each case.
